Like-named read-outs stand apart in the source and are kept apart here.
What was measured:
[1] = biological target: T1, full length N-terminally FLAG-tagged PARP1 (Homo sapiens, UniProt P09874); assay: PARP1 biochemical DELFIA assay (auto-PARylation); parameters: recombinant full length human N-terminally FLAG-tagged PARP1; conditions: binned IC50, PARP1 biochemical DELFIA assay
[2] = biological target: T1, full length N-terminally FLAG-tagged PARP1; assay: PARP1 probe displacement HTRF assay; conditions: for Kd: binned Kd, PARP1 probe displacement HTRF; for Selectivity: PARP1 over PARP2, ratio Kd (PARP2)/Kd (PARP1), probe displacement HTRF
[3] = biological target: T2, N-terminally FLAG-tagged PARP2 (amino acids 1-583) (Homo sapiens, UniProt Q9UGN5); assay: PARP2 probe displacement HTRF assay; type: binding; conditions: binned Kd, PARP2 probe displacement HTRF
T2 construct: N-terminally FLAG-tagged PARP2 (amino acids 1-583)
T2 sequence (Q9UGN5 whole entry, the tested form may be a part): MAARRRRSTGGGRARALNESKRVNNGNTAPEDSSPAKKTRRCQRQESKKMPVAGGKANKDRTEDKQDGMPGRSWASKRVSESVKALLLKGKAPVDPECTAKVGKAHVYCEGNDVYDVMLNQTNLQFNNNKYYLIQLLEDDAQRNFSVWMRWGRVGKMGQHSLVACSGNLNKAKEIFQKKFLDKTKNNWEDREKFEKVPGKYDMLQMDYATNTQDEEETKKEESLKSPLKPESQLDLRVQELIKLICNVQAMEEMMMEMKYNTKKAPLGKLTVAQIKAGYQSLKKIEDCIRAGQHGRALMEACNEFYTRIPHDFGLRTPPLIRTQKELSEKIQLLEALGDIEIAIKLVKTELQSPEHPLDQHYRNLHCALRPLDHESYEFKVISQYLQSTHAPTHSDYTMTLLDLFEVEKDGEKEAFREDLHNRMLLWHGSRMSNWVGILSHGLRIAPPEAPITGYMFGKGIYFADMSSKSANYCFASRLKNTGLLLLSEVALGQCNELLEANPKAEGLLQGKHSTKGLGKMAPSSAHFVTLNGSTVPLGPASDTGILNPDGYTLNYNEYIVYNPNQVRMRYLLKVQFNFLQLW
Protocol: Data analysis was performed identical as for PARP1.

T1 sequence (P09874 whole entry): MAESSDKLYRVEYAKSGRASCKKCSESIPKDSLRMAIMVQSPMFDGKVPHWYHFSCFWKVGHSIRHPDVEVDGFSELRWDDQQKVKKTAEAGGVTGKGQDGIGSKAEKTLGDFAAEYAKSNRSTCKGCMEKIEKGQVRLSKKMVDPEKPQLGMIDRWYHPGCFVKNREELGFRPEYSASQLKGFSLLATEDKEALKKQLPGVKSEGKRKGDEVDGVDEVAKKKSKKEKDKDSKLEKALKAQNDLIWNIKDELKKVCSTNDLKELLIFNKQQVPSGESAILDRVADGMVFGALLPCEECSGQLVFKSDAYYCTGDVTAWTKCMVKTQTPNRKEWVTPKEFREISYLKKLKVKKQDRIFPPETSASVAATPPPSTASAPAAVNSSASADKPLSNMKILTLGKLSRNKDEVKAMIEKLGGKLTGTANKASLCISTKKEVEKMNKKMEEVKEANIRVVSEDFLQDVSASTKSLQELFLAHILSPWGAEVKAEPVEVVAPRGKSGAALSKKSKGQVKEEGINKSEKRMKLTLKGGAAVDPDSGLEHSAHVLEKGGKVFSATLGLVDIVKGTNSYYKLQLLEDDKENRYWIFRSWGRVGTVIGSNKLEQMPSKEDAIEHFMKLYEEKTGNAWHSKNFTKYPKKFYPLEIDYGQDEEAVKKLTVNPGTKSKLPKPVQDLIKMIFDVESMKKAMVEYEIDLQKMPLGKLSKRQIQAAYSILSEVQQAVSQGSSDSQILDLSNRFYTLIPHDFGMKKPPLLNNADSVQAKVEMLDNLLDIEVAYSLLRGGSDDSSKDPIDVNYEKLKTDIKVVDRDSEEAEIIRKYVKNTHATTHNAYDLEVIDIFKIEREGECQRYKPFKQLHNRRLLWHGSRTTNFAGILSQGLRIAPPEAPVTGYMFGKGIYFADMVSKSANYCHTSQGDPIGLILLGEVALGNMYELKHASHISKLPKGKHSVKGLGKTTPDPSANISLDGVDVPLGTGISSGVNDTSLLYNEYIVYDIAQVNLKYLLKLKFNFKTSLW

| SMILES | IC50 [1] | Kd ([2]; PARP1 HTRF) | Selectivity [2] | Kd [3] | Kd ([2]; read-out: PARP1 HTRF) |
| --- | --- | --- | --- | --- | --- |
| CNC(=O)c1ccc(N2CCC(N3CCC(c4nc5ccccc5c(=O)[nH]4)C3)CC2)cn1 (racemic) [Compound 10rac] | < 10 nM | < 10 nM | +++ (+++ indicate a value of at least 100) | 100 to 1000 nM | – |
| CCc1cnc(C2CCCN(CC3CCN(c4ccc(C(=O)NC)nc4)CC3)C2)[nH]c1=O (racemic) [Compound 39rac] | 100 to 1000 nM | – | + (+ indicates a value of 10 to less than 50) | > 10000 nM | 100 to 1000 nM |
| CCc1cnc(C2CCN(C3CCN(c4ccc(C(=O)NC)nc4)CC3)C2)[nH]c1=O (racemic) [Compound 42rac] | < 10 nM | < 10 nM | +++ (+++ indicate a value of at least 100) | 1000 to 10000 nM | – |
| CNC(=O)c1ccc(N2CCC(N3CCC(c4nc5ccc(Cl)cc5c(=O)[nH]4)C3)CC2)cn1 (racemic) [Compound 49rac] | < 10 nM | – | +++ (+++ indicate a value of at least 100) | 100 to 1000 nM | < 10 nM |
| CNC(=O)c1ccc(F)c(N2CCC(N3CCCC(c4nc5ccccc5c(=O)[nH]4)C3)CC2)n1 (racemic) [Compound 95rac] | 100 to 1000 nM | – | − (− indicates a value of less than 10) | 1000 to 10000 nM | 1000 to 10000 nM |
| CNC(=O)c1ccc(N2CCC(N3CCCC(c4nc5ccccc5c(=O)[nH]4)CC3)CC2)cn1 (racemic) [Compound 102rac] | < 10 nM | – | +++ (+++ indicate a value of at least 100) | 1000 to 10000 nM | < 10 nM |
| CNC(=O)c1ccc(N2CCC(N3CCCC(c4nc5ccccc5c(=O)[nH]4)C3)CC2)c(F)n1 (racemic) [Compound 103rac] | < 10 nM | – | +++ (+++ indicate a value of at least 100) | 1000 to 10000 nM | < 10 nM |
| CNC(=O)c1ccc(N2CCC(N3CCC(c4nc5ccccc5c(=O)[nH]4)C3)CC2)c(Cl)n1 (racemic) [Compound 104rac] | < 10 nM | – | +++ (+++ indicate a value of at least 100) | 1000 to 10000 nM | < 10 nM |
| CNC(=O)c1ccc(F)c(N2CCC(N3CCC(c4nc5ccccc5c(=O)[nH]4)C3)CC2)n1 (racemic) [Compound 105rac] | 100 to 1000 nM | – | − (− indicates a value of less than 10) | 1000 to 10000 nM | 100 to 1000 nM |
| COCCNC(=O)c1ccc(N2CCC(N3CCC(c4nc5ccccc5c(=O)[nH]4)C3)CC2)cn1 (racemic) [Compound 124rac] | < 10 nM | – | +++ (+++ indicate a value of at least 100) | 100 to 1000 nM | < 10 nM |
| CNC(=O)c1ccc(N2CCC(N3CCC(c4cnc(C)c(=O)[nH]4)C3)CC2)cn1 (racemic) [Compound 127rac] | 10 to 100 nM | – | +++ (+++ indicate a value of at least 100) | > 10000 nM | 10 to 100 nM |
| CNC(=O)c1ccc(N2CCC(N3CCCC(c4ccc(C(C)C)c(=O)[nH]4)C3)CC2)cn1 (racemic) [Compound 132rac] | 10 to 100 nM | – | +++ (+++ indicate a value of at least 100) | > 10000 nM | 10 to 100 nM |
| CCc1nc(C(=O)NC)ccc1N1CCC(N2CCC(c3ccc(CC)c(=O)[nH]3)C2)CC1 (racemic) [Compound 134rac] | < 10 nM | – | +++ (+++ indicate a value of at least 100) | > 10000 nM | < 10 nM |
| CNC(=O)c1ccc(N2CCC(N3CCC(c4cc5cccc(C(F)(F)F)c5c(=O)[nH]4)C3)CC2)cn1 (racemic) [Compound 135rac] | < 10 nM | – | + (+ indicates a value of 10 to less than 50) | 10 to 100 nM | < 10 nM |
| CNC(=O)c1ccc(N2CCC(N3CCC(c4cc5cccc(F)c5c(=O)[nH]4)C3)CC2)cn1 (racemic) [Compound 136rac, 5-{4-[3-(8-fluoro-1-oxo-2H-isoquinolin-3-yl)pyrrolidin-1-yl]piperidin-1-yl}-N-methylpyridine-2-carboxamide] | < 10 nM | < 10 nM | +++ (+++ indicate a value of at least 100) | 10 to 100 nM | – |
| CNC(=O)c1ccc(N2CCC(N3CCCC(c4nc5ccccc5c(=O)[nH]4)C3)CC2)c(C(F)(F)F)n1 (racemic) [Compound 138rac] | 10 to 100 nM | – | ++ (++ indicates a value of 50 to less than 100) | 1000 to 10000 nM | 10 to 100 nM |
| CNC(=O)c1ccc(N2CCC(N3CCC(c4ccc(C5CC5)c(=O)[nH]4)C3)CC2)cn1 (racemic) [Compound 141rac] | < 10 nM | – | +++ (+++ indicate a value of at least 100) | 1000 to 10000 nM | < 10 nM |
| CNC(=O)c1ccc(N2CCC(N3CCC(c4ccc(C(C)C)c(=O)[nH]4)C3)CC2)cn1 (racemic) [Compound 142rac] | < 10 nM | – | +++ (+++ indicate a value of at least 100) | 1000 to 10000 nM | < 10 nM |
| CNC(=O)c1ccc(N2CCC(N3CCC(c4nc5c(C)nn(C)c5c(=O)[nH]4)C3)CC2)cn1 (racemic) [Compound 143rac] | 10 to 100 nM | – | +++ (+++ indicate a value of at least 100) | 1000 to 10000 nM | < 10 nM |
| CCc1ccc(C2CCN(C3CCN(c4ccc(C(=O)NCC(F)(F)F)nc4)CC3)C2)[nH]c1=O (racemic) [Compound 153rac] | < 10 nM | – | ++ (++ indicates a value of 50 to less than 100) | 100 to 1000 nM | < 10 nM |
| CNC(=O)c1ccc(N2CCC(N3CCC(c4cc5ccc(F)cc5c(=O)[nH]4)C3)CC2)cn1 (racemic) [Compound 154rac, 5-(4-(3-(7-fluoro-1-oxo-1,2-dihydroisoquinolin-3-yl)pyrrolidin-1-yl)piperidin-1-yl)-N-methylpicolinamide] | < 10 nM | < 10 nM | + (+ indicates a value of 10 to less than 50) | 10 to 100 nM | – |
| CNC(=O)c1ccc(N(C)CCN2CCCC(Cc3nc4ccccc4c(=O)[nH]3)C2)cn1 (single isomer, unassigned) [Compound 13a] | 1000 to 10000 nM | – | – | – | – |
| CNC(=O)c1ccc(OCCN2CCCC(Cc3nc4ccccc4c(=O)[nH]3)C2)cn1 (single isomer, unassigned) [Compound 14a, N-methyl-5-(2-(3-((4-oxo-3,4-dihydroquinazolin-2-yl)methyl)piperidin-1-yl)ethoxy)picolinamide] | 1000 to 10000 nM | – | – | – | – |

| SMILES | IC50 [1] | Kd ([2]; PARP1 HTRF) | Selectivity [2] | Kd [3] | Kd ([2]; read-out: PARP1 HTRF) |
| --- | --- | --- | --- | --- | --- |
| CNC(=O)c1ccc(N(C)CCCN2CCCC(c3nc4ccccc4c(=O)[nH]3)C2)cn1 (single isomer, unassigned) [Compound 16a] | 100 to 1000 nM | – | – | – | – |
| CNC(=O)c1ccc(N(C)CCCN2CCCC(c3nc4ccccc4c(=O)[nH]3)C2)cn1 (single isomer, unassigned) [Compound 16b] | 100 to 1000 nM | – | – | – | – |
| CNC(=O)c1ccc(N2CC(N3CCCC(c4nc5ccccc5c(=O)[nH]4)C3)C2)cn1 (single isomer, unassigned) [Compound 23a] | 100 to 1000 nM | – | – | – | – |
| CCc1cnc(C2CCCN(C3CCC(F)(F)CC3)C2)[nH]c1=O (single isomer, unassigned) [Compound 24a] | 1000 to 10000 nM | – | – | – | – |
| CCc1cnc(C2CCCN(C3CCC(F)(F)CC3)C2)[nH]c1=O (single isomer, unassigned) [Compound 24b] | 1000 to 10000 nM | – | – | – | – |
| CCc1cnc(C2CCCN(C3CCN(c4ccc(C(=O)NC)nc4)CC3)C2)[nH]c1=O (single isomer, unassigned) [Compound 31a] | 1000 to 10000 nM | – | – | – | – |
| O=c1[nH]c(C2CCN(C3CCN(c4ccccc4)CC3)C2)nc2ccccc12 (single isomer, unassigned) [Compound 32b] | 100 to 1000 nM | – | – | – | – |
| CNC(=O)c1ccc(N2CCC(N3CCCC(c4ncc(C)c(=O)[nH]4)C3)CC2)cn1 (single isomer, unassigned) [Compound 33a] | > 10000 nM | – | – | – | – |
| CNC(=O)c1ccc(N2CCC(N3CCC(c4ncc(C)c(=O)[nH]4)C3)CC2)cn1 (single isomer, unassigned) [Compound 35a] | 100 to 1000 nM | – | – | – | – |
| CNC(=O)c1ccc(N2CCC(N3CCC(c4nc5ccccc5c(=O)[nH]4)CC3)CC2)cn1 [Compound 1] | 100 to 1000 nM | – | – | – | – |
| CNC(=O)c1ccc(N2CCC(c3nc4ccccc4c(=O)[nH]3)CC2)cn1 [Compound 5] | 1000 to 10000 nM | – | – | – | – |
| CNC(=O)c1ccc(N(C)CCCN2CCC(c3nc4ccccc4c(=O)[nH]3)CC2)cn1 [Compound 12] | 100 to 1000 nM | – | – | – | – |
| CNC(=O)c1ccc(N2CCC(n3ccc(-c4nc5ccccc5c(=O)[nH]4)n3)CC2)cn1 [Compound 15] | 100 to 1000 nM | – | – | – | – |
| CNC(=O)c1ccc(N2CCC(n3ccc(-c4nc5ccccc5c(=O)[nH]4)c3)CC2)cn1 [Compound 18] | 100 to 1000 nM | – | – | – | – |
| CCc1cnc(C2CCN(C3CCN(c4ccc(C(=O)NC)nc4)CC3)CC2)[nH]c1=O [Compound 19] | 1000 to 10000 nM | – | – | – | – |
| CCc1cnc(C2CCN(C3CCC(F)(F)CC3)CC2)[nH]c1=O [Compound 21] | 1000 to 10000 nM | – | – | – | – |
| CCc1cnc(-c2ccn(C3CCN(c4ccc(C(=O)NC)nc4)CC3)c2)[nH]c1=O [Compound 22] | 1000 to 10000 nM | – | – | – | – |
| CCc1cnc(-c2ccn(C3CCN(c4ccc(C(=O)NC)nc4)CC3)n2)[nH]c1=O [Compound 25] | 100 to 1000 nM | – | – | – | – |
| CNC(=O)c1ccc(N2CC(N3CCC(c4nc5ccccc5c(=O)[nH]4)CC3)C2)cn1 [Compound 28] | 100 to 1000 nM | – | – | – | – |
| CCc1cnc(C2CCN(CC3CCN(c4ccc(C(=O)NC)nc4)CC3)CC2)[nH]c1=O [Compound 29] | 1000 to 10000 nM | – | – | – | – |
| CNC(=O)c1ccc(N2CCC(CN3CCC(c4ncc(C)c(=O)[nH]4)CC3)CC2)cn1 [Compound 30] | 100 to 1000 nM | – | – | – | – |
| CNC(=O)c1ccc(N2CCC(N3CCCC(c4nc5ccccc5c(=O)[nH]4)C3)CC2)c(C)n1 (stereo not drawn) [Compound 131] | 1000 to 10000 nM | – | – | – | – |

Reference: patent US20250152585A1, “PHARMACEUTICAL COMPOUND” (Duke Street Bio Limited, priority 2022, published 2025)
